Test results published in paper PMC5746379 (2017).

Columns and labels:
[1] = test system: P1 (DNA, G4) GGGCGGTGGGAGGGGGGTGGTGGG; assay: CD melting; details: 1:3 ratio P1-M2; Tm ~79 °C with and without M2; buffer not stated
[2] = test system: P1 (DNA, G4) GGGCGGTGGGAGGGGGGTGGTGGG; assay: absorption, fluorescence titration, WaterLOGSY NMR; details: buffer and highest concentration not stated
[3] = test system: P2 (DNA, G4) GGGCGGGGAGGGGGG; assay: fluorescence titration of M2 (emission shift Δλ); details: excitation 345 nm; buffer not stated
[4] = test system: P2 (DNA, G4) GGGCGGGGAGGGGGG; assay: WaterLOGSY 1H NMR; details: 298 K; water with 10% D2O

binding [1]: no | binding [2]: no | KD [3]: 13.2 µM | binding [4]: yes
SMILES: CN(CCC#N)c1ccc(C=NCCCN=Cc2ccc(N(C)CCC#N)cc2)cc1
